Measurements: paper PMC8398766, “Do Small Molecules Activate the TrkB Receptor in the Same Manner as BDNF? Limitations of Published TrkB Low Molecular Agonists and Screening for Novel TrkB Orthosteric Agonists” (Pharmaceuticals, 2021)
Entries after “also recorded” stand apart in the source; their conditions may differ.

Legend:
TrkB receptor = molecular target: T1, TrkB receptor (Rattus norvegicus, UniProt Q63604); test: ELFI TrkB phosphorylation, orthosteric agonist mode, SN56 T48 cell line; type: cell-based; conditions: 0.125–100 μM, 15 min
T1 construct: host or cells: SN56 T48 cell line
Experimental: The SN56 T48 cell line with stable overexpression of the TrkB receptor was purchased from Emory University (Atlanta, GA, USA) and cultivated according to the protocol described in Jang et al., 2010 [12]. The cell lines were cultivated with the following reagents: DMEM High Glucose, fetal bovine serum (FBS), Penicillin-Streptomycin Solution 100×, and Trypsin-EDTA 1×; all were purchased from Biowest, and G418 was from ThermoFisher Scientific. For the ELFI experiments, cells were seeded (8000/well) on a PDL-treated 96-well plate (BioCoat™, Corning Inc., Corning, NY, USA) and 6-well plate (400,000/well) for lysate collection and immunoblot analysis.
In the orthosteric agonist mode experiments, starved cells (5 h) were treated with compounds (0.125–100 μM; volume, 100 μL/well) or BDNF (0.01–10 nM; volume, 100 μL/well) dissolved in culture medium. In the allosteric modulation mode experiments, starved cells (5 h) were treated with final compound concentrations of 3, 10, and 30 μM; volume, 50 μL/well) in the presence of a rising concentration of BDNF (final concentration in well, 0.15–5 nM; volume, 50 μL/well). Corresponding treatment with DMSO (v/v) was performed for a control. Cells were treated for 15 min in both the orthosteric and allosteric modulation mode experiments.
The analysis of TrkB receptor activation was performed using the ELFI method adapted from Boltayev et al. (2017) with some modifications. After compound treatment, experiments were stopped by fixing cells with 10% buffered formalin (Kolchem, Lodz, Poland) for 20 min (volume, 100 μL/well). Afterwards, cells were permeabilized with washing buffer (TBS+ 0.1% Tween20) for 15 min, and endogenous peroxidases were quenched by 20 min of incubation with 1% H2O2 dissolved in TBS (each solution: volume, 100 μL/well). Epitopes were blocked with 10% BSA (Biowest) dissolved in washing buffer for 2 h (volume, 100 μL/well) and incubated with anti-pTrkB (Tyr707) primary antibody (Cell Signaling Technology, Danvers, MA, USA) diluted in washing buffer (1:500; overnight at 4 °C; volume, 100 μL/well). After repeated washing, cells were incubated with HRP-linked anti-rabbit antibody (Cell Signaling Technology) for 2 h (1:1000; RT; volume, 100 μL/well) and washed. The cells were then incubated with 100 μL of ImmunoCruz™ Western Blotting Luminol (Santa Cruz Biotechnology, Dallas, TX, USA) for 1 min in the dark, and the signals were measured using a microplate luminometer (VICTOR Light 1420-060, PerkinElmer®, Waltham, MA, USA). For non-specific binding, cells were treated, with the exception of primary antibody.

H1 = molecular target: T2, H1 (Homo sapiens, UniProt P35367); test: BioPrint Profile Panel; type: binding; conditions: Antagonist, Receptor, read-out: % of specific inhibition
T2 construct: purchased Eurofins Discovery (Cerep) BioPrint Profile Panel
From the text: (§1) The BioPrint® Profile Panel service offered by Eurofins Discovery (Poitiers, France) was chosen to perform selectivity analysis.

glycine = test: BioPrint Profile Panel; type: binding; conditions: 10 μM; Antagonist; Ion Channel
From the text: as §1

α1B = molecular target: T3, α1B (Homo sapiens, UniProt P35368); test: BioPrint Profile Panel; type: binding; conditions: Antagonist, Receptor, read-out: % of specific inhibition
T3 construct: purchased Eurofins Discovery (Cerep) BioPrint Profile Panel
From the text: as §1

µ (MOP) = molecular target: T4, µ (MOP) (Homo sapiens, UniProt P35372); test: BioPrint Profile Panel; type: binding; conditions: Agonist, Receptor, read-out: % of specific inhibition
T4 construct: purchased Eurofins Discovery (Cerep) BioPrint Profile Panel
From the text: as §1

A3 = molecular target: T5, A3 (Homo sapiens, UniProt P0DMS8); test: BioPrint Profile Panel; type: binding; conditions: Agonist, Receptor
T5 construct: purchased Eurofins Discovery (Cerep) BioPrint Profile Panel
From the text: as §1

sst4 = molecular target: T6, sst4 (Homo sapiens, UniProt P31391); test: BioPrint Profile Panel; type: binding; conditions: Agonist, Receptor, read-out: % of specific inhibition
T6 construct: purchased Eurofins Discovery (Cerep) BioPrint Profile Panel
From the text: as §1

EP2 = molecular target: T7, EP2 (Homo sapiens, UniProt P43116); test: BioPrint Profile Panel; type: binding; conditions: Agonist, Receptor, read-out: % of specific inhibition
T7 construct: purchased Eurofins Discovery (Cerep) BioPrint Profile Panel
From the text: as §1

ETA = molecular target: T8, ETA (Homo sapiens, UniProt P25101); test: BioPrint Profile Panel; type: binding; conditions: Agonist, Receptor, read-out: % of specific inhibition
T8 construct: purchased Eurofins Discovery (Cerep) BioPrint Profile Panel
From the text: as §1

β1 = molecular target: T9, β1 (Homo sapiens, UniProt P08588); test: BioPrint Profile Panel; type: binding; conditions: Agonist, Receptor, read-out: % of specific inhibition
T9 construct: purchased Eurofins Discovery (Cerep) BioPrint Profile Panel
From the text: as §1

5-HT1D = molecular target: T10, 5-HT1D (Rattus norvegicus, UniProt P28565); test: BioPrint Profile Panel; type: binding; conditions: Agonist, Receptor, read-out: % of specific inhibition
T10 construct: purchased Eurofins Discovery (Cerep) BioPrint Profile Panel
From the text: as §1

M3 = molecular target: T11, M3 (Homo sapiens, UniProt P20309); test: BioPrint Profile Panel; type: binding; conditions: Antagonist, Receptor, read-out: % of specific inhibition
T11 construct: purchased Eurofins Discovery (Cerep) BioPrint Profile Panel
From the text: as §1

A2A = molecular target: T12, A2A (Homo sapiens, UniProt P29274); test: BioPrint Profile Panel; type: binding; conditions: Agonist, Receptor
T12 construct: purchased Eurofins Discovery (Cerep) BioPrint Profile Panel
From the text: as §1

Cl- channel = test: BioPrint Profile Panel; type: binding; conditions: 10 μM; Antagonist; Ion Channel
From the text: as §1

5-HT2B = molecular target: T13, 5-HT2B (Homo sapiens, UniProt P41595); test: BioPrint Profile Panel; type: binding; conditions: Agonist, Receptor
T13 construct: purchased Eurofins Discovery (Cerep) BioPrint Profile Panel
From the text: as §1

PPARγ = molecular target: T14, PPARγ (Homo sapiens, UniProt P37231); test: BioPrint Profile Panel; type: binding; conditions: Agonist, Receptor, read-out: % of specific inhibition
T14 construct: purchased Eurofins Discovery (Cerep) BioPrint Profile Panel
From the text: as §1

CB2 = molecular target: T15, CB2 (Homo sapiens, UniProt P34972); test: BioPrint Profile Panel; type: binding; conditions: Agonist, Receptor, read-out: % of specific inhibition
T15 construct: purchased Eurofins Discovery (Cerep) BioPrint Profile Panel
From the text: as §1

in vitro = conditions: PAMPA, pH 7.4
[1] = read-out: % Inhibition of Control Specific Binding

T13 sequence (P41595 whole entry): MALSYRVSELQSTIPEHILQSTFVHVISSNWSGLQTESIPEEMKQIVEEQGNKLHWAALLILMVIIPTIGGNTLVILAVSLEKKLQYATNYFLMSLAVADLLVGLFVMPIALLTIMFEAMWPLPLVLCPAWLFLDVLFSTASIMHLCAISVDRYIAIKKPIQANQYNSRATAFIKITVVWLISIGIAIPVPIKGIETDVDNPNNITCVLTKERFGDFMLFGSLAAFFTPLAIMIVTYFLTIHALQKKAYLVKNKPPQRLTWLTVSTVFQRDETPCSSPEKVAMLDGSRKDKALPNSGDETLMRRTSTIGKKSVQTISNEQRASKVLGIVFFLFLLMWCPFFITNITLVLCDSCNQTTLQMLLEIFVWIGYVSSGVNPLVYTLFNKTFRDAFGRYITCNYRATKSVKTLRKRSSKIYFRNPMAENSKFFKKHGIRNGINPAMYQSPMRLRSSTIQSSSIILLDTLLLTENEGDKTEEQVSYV
T1 sequence (Q63604 32-821): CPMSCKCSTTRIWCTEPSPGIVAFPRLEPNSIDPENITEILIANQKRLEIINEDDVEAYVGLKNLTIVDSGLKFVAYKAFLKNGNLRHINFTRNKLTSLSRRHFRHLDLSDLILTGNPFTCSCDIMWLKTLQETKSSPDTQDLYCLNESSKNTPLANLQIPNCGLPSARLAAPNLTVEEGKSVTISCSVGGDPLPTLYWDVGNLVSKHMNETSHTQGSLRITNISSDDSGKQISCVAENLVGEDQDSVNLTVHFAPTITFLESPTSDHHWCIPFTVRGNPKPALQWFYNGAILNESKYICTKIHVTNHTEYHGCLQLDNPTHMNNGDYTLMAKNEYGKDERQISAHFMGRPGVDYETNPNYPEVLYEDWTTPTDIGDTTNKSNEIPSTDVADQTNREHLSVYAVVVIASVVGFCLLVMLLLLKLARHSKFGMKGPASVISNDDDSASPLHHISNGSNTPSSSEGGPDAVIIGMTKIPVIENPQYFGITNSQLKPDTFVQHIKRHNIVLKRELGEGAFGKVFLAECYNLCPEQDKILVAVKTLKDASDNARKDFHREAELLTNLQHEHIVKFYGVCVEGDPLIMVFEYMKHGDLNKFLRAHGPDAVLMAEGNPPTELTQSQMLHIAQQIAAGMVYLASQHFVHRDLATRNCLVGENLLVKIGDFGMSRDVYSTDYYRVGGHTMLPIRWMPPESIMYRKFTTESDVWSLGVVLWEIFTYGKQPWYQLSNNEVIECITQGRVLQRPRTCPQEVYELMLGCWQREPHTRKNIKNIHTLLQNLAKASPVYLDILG
T5 sequence (P0DMS8 whole entry): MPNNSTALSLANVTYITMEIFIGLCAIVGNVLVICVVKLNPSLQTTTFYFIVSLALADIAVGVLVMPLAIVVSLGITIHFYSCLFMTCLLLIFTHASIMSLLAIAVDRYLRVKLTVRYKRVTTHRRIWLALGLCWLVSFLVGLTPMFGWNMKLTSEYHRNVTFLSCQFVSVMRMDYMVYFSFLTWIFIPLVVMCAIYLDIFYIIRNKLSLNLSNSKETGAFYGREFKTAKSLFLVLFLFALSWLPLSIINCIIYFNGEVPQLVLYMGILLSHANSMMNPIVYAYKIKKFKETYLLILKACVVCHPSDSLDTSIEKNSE
T12 sequence (P29274 whole entry): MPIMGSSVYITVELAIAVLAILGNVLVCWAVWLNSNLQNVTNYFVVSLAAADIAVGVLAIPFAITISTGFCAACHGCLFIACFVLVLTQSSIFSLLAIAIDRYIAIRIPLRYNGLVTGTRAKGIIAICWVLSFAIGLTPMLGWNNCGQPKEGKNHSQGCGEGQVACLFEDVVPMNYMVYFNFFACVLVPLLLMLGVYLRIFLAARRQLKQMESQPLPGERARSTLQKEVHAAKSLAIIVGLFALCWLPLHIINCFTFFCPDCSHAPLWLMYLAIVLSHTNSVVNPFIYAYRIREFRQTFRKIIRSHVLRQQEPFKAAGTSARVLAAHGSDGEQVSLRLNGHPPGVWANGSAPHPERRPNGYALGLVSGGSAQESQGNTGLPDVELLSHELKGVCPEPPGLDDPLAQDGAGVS
T10 sequence (P28565 whole entry): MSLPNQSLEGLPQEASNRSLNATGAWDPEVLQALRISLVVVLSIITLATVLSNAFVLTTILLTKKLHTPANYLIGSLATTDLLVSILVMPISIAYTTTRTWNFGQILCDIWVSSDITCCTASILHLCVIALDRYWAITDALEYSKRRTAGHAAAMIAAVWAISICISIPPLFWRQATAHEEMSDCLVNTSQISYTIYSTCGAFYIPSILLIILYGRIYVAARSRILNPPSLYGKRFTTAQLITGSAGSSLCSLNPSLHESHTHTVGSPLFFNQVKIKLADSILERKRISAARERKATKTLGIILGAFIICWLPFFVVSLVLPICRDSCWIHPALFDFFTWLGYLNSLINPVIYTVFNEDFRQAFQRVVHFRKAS
T15 sequence (P34972 whole entry): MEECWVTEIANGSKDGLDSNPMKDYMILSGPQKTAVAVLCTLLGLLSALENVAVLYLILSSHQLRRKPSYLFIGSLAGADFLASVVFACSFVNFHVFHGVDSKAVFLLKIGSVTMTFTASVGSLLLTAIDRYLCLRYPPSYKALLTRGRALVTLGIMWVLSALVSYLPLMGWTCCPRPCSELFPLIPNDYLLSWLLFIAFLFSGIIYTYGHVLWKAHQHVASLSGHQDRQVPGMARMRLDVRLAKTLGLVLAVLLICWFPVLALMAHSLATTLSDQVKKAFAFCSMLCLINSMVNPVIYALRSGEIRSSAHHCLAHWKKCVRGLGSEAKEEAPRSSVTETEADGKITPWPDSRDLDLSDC
T2 sequence (P35367 whole entry): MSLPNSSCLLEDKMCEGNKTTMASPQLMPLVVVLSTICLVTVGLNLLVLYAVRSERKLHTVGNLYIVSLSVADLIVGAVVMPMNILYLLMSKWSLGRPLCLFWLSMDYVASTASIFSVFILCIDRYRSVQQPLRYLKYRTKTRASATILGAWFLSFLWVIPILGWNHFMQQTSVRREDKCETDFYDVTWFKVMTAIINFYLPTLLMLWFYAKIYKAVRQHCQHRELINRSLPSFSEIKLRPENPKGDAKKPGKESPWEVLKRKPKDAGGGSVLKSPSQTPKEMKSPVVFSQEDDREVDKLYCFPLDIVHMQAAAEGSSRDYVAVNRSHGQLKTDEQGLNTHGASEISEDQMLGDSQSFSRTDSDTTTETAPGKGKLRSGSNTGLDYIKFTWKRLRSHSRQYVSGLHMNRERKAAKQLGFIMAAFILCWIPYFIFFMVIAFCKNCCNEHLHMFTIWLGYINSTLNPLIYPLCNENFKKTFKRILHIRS
T8 sequence (P25101 21-427): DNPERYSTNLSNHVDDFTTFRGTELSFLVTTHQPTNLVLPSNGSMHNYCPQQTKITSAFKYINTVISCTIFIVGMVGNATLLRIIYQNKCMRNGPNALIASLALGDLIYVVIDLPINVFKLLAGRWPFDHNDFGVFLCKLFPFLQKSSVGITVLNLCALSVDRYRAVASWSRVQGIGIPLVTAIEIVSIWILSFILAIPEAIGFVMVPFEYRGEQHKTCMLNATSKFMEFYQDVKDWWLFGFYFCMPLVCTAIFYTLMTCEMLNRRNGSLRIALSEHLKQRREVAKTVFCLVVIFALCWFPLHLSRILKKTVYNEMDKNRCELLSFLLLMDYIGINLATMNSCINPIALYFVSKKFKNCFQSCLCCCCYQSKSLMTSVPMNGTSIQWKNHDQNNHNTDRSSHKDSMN
T14 sequence (P37231 whole entry): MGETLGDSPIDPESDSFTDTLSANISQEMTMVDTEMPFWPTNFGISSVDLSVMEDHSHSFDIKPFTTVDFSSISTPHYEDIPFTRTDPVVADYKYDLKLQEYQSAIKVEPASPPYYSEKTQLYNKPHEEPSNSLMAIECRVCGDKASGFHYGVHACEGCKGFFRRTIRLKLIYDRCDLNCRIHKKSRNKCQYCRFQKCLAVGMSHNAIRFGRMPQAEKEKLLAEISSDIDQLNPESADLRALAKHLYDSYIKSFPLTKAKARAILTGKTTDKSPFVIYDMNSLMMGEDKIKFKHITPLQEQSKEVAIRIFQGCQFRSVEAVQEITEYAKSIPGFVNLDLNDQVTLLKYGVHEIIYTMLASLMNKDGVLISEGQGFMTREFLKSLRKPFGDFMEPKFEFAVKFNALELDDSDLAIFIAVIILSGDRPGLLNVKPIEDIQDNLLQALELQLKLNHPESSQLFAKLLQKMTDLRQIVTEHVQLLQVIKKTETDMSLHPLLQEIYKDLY
T4 sequence (P35372 whole entry): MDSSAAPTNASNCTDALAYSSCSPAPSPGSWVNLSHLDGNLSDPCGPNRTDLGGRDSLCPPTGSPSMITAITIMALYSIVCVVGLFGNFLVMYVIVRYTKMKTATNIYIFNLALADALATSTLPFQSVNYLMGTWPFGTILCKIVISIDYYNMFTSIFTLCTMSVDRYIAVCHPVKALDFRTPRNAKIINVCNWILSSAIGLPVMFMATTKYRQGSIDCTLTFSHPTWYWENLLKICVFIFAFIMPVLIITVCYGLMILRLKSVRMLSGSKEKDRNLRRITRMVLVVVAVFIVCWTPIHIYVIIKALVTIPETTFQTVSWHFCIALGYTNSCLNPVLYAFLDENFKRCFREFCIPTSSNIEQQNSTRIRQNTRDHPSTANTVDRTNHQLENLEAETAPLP
T7 sequence (P43116 whole entry): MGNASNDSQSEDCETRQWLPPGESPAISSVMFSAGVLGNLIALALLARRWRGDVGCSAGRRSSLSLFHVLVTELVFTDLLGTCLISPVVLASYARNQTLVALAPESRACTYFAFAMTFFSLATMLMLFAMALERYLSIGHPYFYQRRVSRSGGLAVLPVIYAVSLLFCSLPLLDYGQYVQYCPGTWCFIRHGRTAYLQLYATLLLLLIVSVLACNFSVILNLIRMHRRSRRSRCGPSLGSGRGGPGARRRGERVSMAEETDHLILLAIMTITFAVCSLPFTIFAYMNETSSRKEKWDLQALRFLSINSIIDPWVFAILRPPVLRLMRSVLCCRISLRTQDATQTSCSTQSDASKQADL

## O=c1cc(-c2ccccc2)oc2c(O)c(O)ccc12 [7,8-DHF, 7,8-dihydroxyflavone]
TrkB receptor
  Orthosteric activity (induction of TrkB phosphorylation): failed to show any activity; also recorded: does not occur
H1
  inhibition at 10 µM: -5%
glycine
  % of specific inhibition: -1%
α1B
  inhibition at 10 µM: -3%
µ (MOP)
  inhibition at 10 µM: -2%
A3; 10 μM
  % Inhibition of Control Specific Binding: 68.2%
A3; [1]
  inhibition at 10 µM: 68%
sst4
  inhibition at 10 µM: -23%
EP2
  inhibition at 10 µM: 2%
ETA
  inhibition at 10 µM: -10%
β1
  inhibition at 10 µM: -5%
5-HT1D
  inhibition at 10 µM: -8%
M3
  inhibition at 10 µM: -7%
A2A; 10 μM
  % Inhibition of Control Specific Binding: 74.9%
A2A; [1]
  inhibition at 10 µM: 75%
Cl- channel
  % of specific inhibition: -7%
5-HT2B; 10 μM
  % Inhibition of Control Specific Binding: 50.2%
5-HT2B; [1]
  inhibition at 10 µM: 50%
PPARγ
  inhibition at 10 µM: 21%
CB2
  inhibition at 10 µM: -3%
In vitro
  Papp at 4 h, 10 μM: 15.8 ×10⁻⁶ cm/s
